# Measurements taken from US20250387381A1, “COMPOSITIONS AND METHODS FOR ENHANCED DRUG LOADING OF LONG-ACTING IN SITU FORMING IMPLANTS AND USES THEREOF” (The University of North Carolina at Chapel Hill, priority 2022, published 2025).
# Assays:
# [1] = human, in vivo, po, 150 mg; cited from earlier work
# [2] = RFB saturated solubility in DMSO and NMP with or without amphiphilic additives; conditions: for solubility at 1 day: organic solvent or mixture, thermodynamic from solid
# [3] = Stability of LA-RFB formulations stored at room temperature in the dark; assay type: physicochemical; conditions: solution of RFB in DMSO without polymer, same storage
# Procedure: At predetermined time points (3, 4, 6, 9, 12, 15 months of incubation) 10 μL of formulation was diluted in 1 mL of DMSO, then further diluted at 1:1000 in DMSO for analysis by UV-vis absorbance spectrometer and HPLC to measure the drug concentration and drug degradation. As a control, RFB dissolved in DMSO (20 μg mL^−1 RFB solution) was incubated in the dark at RT.
# Mtb = conditions: cited from earlier work
smiles,measurement,setting,value
"CO[C@H]1/C=C/O[C@@]2(C)Oc3c(C)c(O)c4c(c3C2=O)C2=NC3(CCN(CC(C)C)CC3)NC2=C(NC(=O)/C(C)=C\C=C\[C@H](C)[C@H](O)[C@@H](C)[C@@H](O)[C@@H](C)[C@H](OC(C)=O)[C@@H]1C)C4=O [RFB, Rifabutin]",Cmax,[1],460 ng/mL
same,Highest RFB solubility in DMSO with Kolliphor HS 15,[2]; 0.45% Kolliphor HS 15,564±7 mg RFB per mL of DMSO
same,solubility at 1 day,"[2]; Highest RFB solubility in NMP with Kolliphor HS 15, 8.8% Kolliphor HS 15",702 ± 10 mg/mL
same,solubility at 1 day,"[2]; RFB maximum solubility in DMSO, DMSO alone, room temperature, mean±SD",202 ± 22 mg/mL
same,solubility at 1 day,"[2]; RFB maximum solubility in NMP, NMP without additive, room temperature, mean±SD",148 ± 34 mg/mL
same,Residual RFB after 3 months,[3],67%
same,Residual RFB after 4 months,[3],53%
same,Residual RFB after 6 months,[3],25%
same,RFB MIC,Mtb,0.064 µg/mL
